Laboratory results reported in patent US10487093B2, “Heterocyclic compounds, in particular 2-oxo-4,4,5,5,6,6,7,7-octahydrobenzoxazole derivatives, and their use as antibacterial compounds” (priority 2016, dated 2019).
In brackets after ≈: the same amount, converted by molar mass.

Assays:
[1] = test system: E. coli MG1655 D87G; assay type: cell-based, Escherichia coli; conditions: compared to the isogenic parent strain E. coli MG1655; D87G mutation on DNA gyrase subunit GyrA
[2] = test system: human hepatic cell line (HepG2 ATCC HB-8065); test: Human cell viability assay (CellTiter-Glo); conditions: Homo sapiens, HepG2, 24 h, read-out: IC50 (μg/mL) HepG2
[3] = test system: Enterobacter cloacae NCTC 13406; test: MIC, broth microdilution (CLSI) versus planktonic bacteria; assay type: cell-based; conditions: NCTC13406; Enterobacter cloacae NCTC 13406; 16-20 h; mode of three independent experiments; read-out: MIC, Ecl NCTC 13406
[4] = test system: E. coli ATCC BAA-2452; test: as above; assay type: cell-based; conditions: Escherichia coli ATCC BAA-2452; 16-20 h; mode of three independent experiments; read-out: MIC, Ec ATCC BAA 2452
[5] = test system: E. coli MG1655; test: as above; assay type: cell-based, Escherichia coli; conditions: Escherichia coli, MG1655, read-out: MIC, Ec MG1655 WT
[6] = test system: Acinetobacter baumannii ATCC 19606; test: as above; assay type: cell-based; conditions: ATCC19606; Acinetobacter baumannii ATCC 19606; 16-20 h; mode of three independent experiments; read-out: MIC, Ab ATCC 19606
[7] = test system: Streptococcus pneumoniae ATCC 49619; test: as above; assay type: cell-based; conditions: ATCC49619; Streptococcus pneumoniae ATCC 49619; 16-20 h; mode of three independent experiments; read-out: MIC, Sp ATCC 49619
[8] = test system: E. coli MG1655 S83L; assay type: cell-based, Escherichia coli; conditions: compared to the isogenic parent strain E. coli MG1655; S83L mutation on DNA gyrase subunit GyrA
[9] = test system: Pseudomonas aeruginosa ATCC 27853; test: MIC, broth microdilution (CLSI) versus planktonic bacteria; assay type: cell-based; conditions: ATCC27853; Pseudomonas aeruginosa ATCC 27853; 16-20 h; mode of three independent experiments; read-out: MIC, Pa ATCC 27853
[10] = test system: Acinetobacter baumannii NCTC 13420; test: as above; assay type: cell-based; conditions: NCTC13420; Acinetobacter baumannii NCTC 13420; 16-20 h; mode of three independent experiments; read-out: MIC, Ab NCTC 13420
[11] = test system: E. coli NCTC 13476; test: as above; assay type: cell-based; conditions: NCTC13476; Escherichia coli NCTC 13476; 16-20 h; mode of three independent experiments; read-out: MIC, Ec NCTC 13476
[12] = test system: Escherichia coli ATCC 25922; test: as above; assay type: cell-based; conditions: ATCC25922; Escherichia coli ATCC 25922; 16-20 h; mode of three independent experiments; read-out: MIC, Ec ATCC 25922

Row | Structure (SMILES) | Fold increase in MIC, E. coli MG1655 D87G [1] | IC50 [2] | MIC [3] | MIC [4] | MIC [5] | MIC [6] | MIC [7] | Fold increase in MIC, E. coli MG1655 S83L [8] | MIC [9] | MIC [10] | MIC [11] | MIC [12]
1 | COc1ccc2ncc(=O)n(CCN[C@@H]3CC[C@@H]4[C@@H](C3)OC(=O)N4c3ccc4c(n3)NC(=O)CO4)c2c1 [Compound 21, 1-(2-{[(3aR,6R,7aR)-2-oxo-3-{3-oxo-2H,3H,4H-pyrido[3,2-b][1,4]oxazin-6-yl}-octahydro-1,3-benzoxazol-6-yl]amino}ethyl)-7-methoxy-1,2-dihydroquinoxalin-2-one] | 2 fold | > 100 µg/mL | < 1 µg/mL | < 1 µg/mL | < 1 µg/mL | < 1 µg/mL | 1 to 10 µg/mL (≈ 1.97 to 19.7 µM) | 1 fold | < 1 µg/mL | < 1 µg/mL | < 1 µg/mL | < 1 µg/mL
2 | Cc1ccc2ncc(=O)n(CCN[C@H]3CC[C@H]4[C@@H](C3)OC(=O)N4c3ccc4c(n3)NC(=O)CO4)c2c1 [Compound 27, 1-(2-{[(3aS,6S,7aR)-2-oxo-3-{3-oxo-2H,3H,4H-pyrido[3,2-b][1,4]oxazin-6-yl}-octahydro-1,3-benzoxazol-6-yl]amino}ethyl)-7-methyl-1,2-dihydroquinoxalin-2-one] |  | > 100 µg/mL | 1 to 10 µg/mL (≈ 2.04 to 20.4 µM) |  |  |  | < 1 µg/mL |  | 1 to 10 µg/mL (≈ 2.04 to 20.4 µM) | 1 to 10 µg/mL (≈ 2.04 to 20.4 µM) |  | < 1 µg/mL
